pIC50: −log10 of the molar value. Values joined by “and” are separate entries in the source; they are usually repeats but may differ in a detail not shown here. Equal values may be shown once. Read-outs that look alike come from different tables or passages of the source.
Experiments:
Type in all cases: cell-based
MDA-MB-231 cells [1] = assay: Transmission electron microscopy of cell morphology; settings: 15ai 4 μM, 24 h
Procedure: Cells were plated at a density of 6 × 10^5 cells/dish in 10 cm culture dishes and allowed to adhere overnight. Then cells were treated with DMSO or compound 15ai for 24 h. Cells were fixed with 2.5% glutaraldehyde in […] phosphate buffer, followed by 1% OsO4 for 2 h. After dehydration, cells were embedded in epoxy resin. The ultrathin sections were made by an ultramicrotome and then stained with lead citrate and uranyl acetate. Images were acquired using the transmission electron microscope (Hitachi H-7650 100kv, Hitachi, Japan). Each experiment was repeated three times independently with similar results.

MIA PaCa-2 = assay: MTT cell viability assay, MIA PaCa-2
Procedure: (§1) All cell lines were cultured at 37 °C with 5% CO2 in a humidified incubator. HeLa cells were grown in MEM (Gibco) supplemented with 10% fetal bovine serum (FBS, Hyclone) and 1% penicillin/streptomycin (Gibco). MIA PaCa-2, MDA-MB-231, A549, MCF-7, A375 and BEAS-2B cells were grown in DMEM (Gibco) supplemented with 10% FBS and 1% penicillin/streptomycin. CT26, and HCT116 cells were grown in RPMI-1640 supplemented with 10% FBS and 1% penicillin/streptomycin. All cell lines were purchased from the National Collection of Authenticated Cell Cultures (China).
(§2) The antiproliferative activities of the prepared compounds against tested cell lines were evaluated using a standard (MTT)-based colorimetric assay. Cells were plated at a density of 3000 cells/well in 96-well plates and allowed to adhere overnight. Then cells were treated with varying concentrations of synthesized compounds for 72 h. At the end of treatment, 20 μL of thiazolyl blue tetrazolium bromide (MTT) solution (5 mg/mL) was added to each well. Cells were incubated for an additional 4 h at 37 °C and then the medium was removed and replaced with 200 μL of DMSO. The absorbance (OD490) was read on a microplate reader (SpectraMax i3x, Molecular Devices, US). In all experiments, three replicate wells were used for each drug concentration. Each assay was performed at least three times. The IC50 values were calculated by GraphPad Prism 9, which were the mean values derived from three independent experiments.

MDA-MB-231 = assay: MTT cell viability assay, MDA-MB-231
Procedure: as §1, §2

MDA-MB-231 cells [2] = assay: Measurement of glutathione levels
Procedure: Cells were plated at a density of 2 × 10^5 cells/well in 6-well plates and allowed to adhere overnight. After being treated as indicated, cells were collected and prepared for measurement of total intracellular glutathione (GSH + GSSG) using the assay kit (Beyotime, S0052) according to the manufacturer’s instructions. […]

A375 = assay: MTT cell viability assay, A375
Procedure: as §1, §2

SLC7A11 = assay: Western blotting, SLC7A11 protein expression; settings: 15ai 0, 2, 4 and 8 μM, 24 h
Procedure: Cells on 6-well plates were rinsed twice with cold PBS and lysed in RIPA lysis buffer (50 mM Tris (pH 7.4), 150 mM NaCl, 1% Triton X-100, 1% deoxycholicphenyl methylsulfonyl fluoride, 5.0 mM sodium pyrophosphate, […] leupeptin, 0.1 mM phenylmethylsulfonyl fluoride, and1 mM DTT) containing a protease inhibitor (PMSF) mixture at 1:100 dilution on ice for 30 min. The insoluble components of cell lysates were removed by centrifugation (4 °C, 12000 × g, 10 min), and protein concentrations were measured using a Pierce BCA protein assay kit. Proteins were separated by sodium dodecyl sulfate-polyacrylamide gel electrophoresis (SDS-PAGE) and transferred onto polyvinylidene difluoride (PVDF) membranes. Membranes were blocked using 5% skim milk in TBST and then incubated with diluted indicated primary antibodies: anti-GPX4 (1:1000 dilution, Proteintech, Cat No: 30388-1-AP), anti-SLC7A11 (1:1000 dilution, ABclonal, Cat No: A13685), anti-GAPDH (1:1000 dilution, Wanlei, Cat No: WL01114) at 4 °C with gentle shaking overnight. After washing five times (5 min each) with TBST, membranes were incubated with the HRP conjugated goat anti rabbit IgG (H + L) (1:5000 dilution, Wanlei, Cat No: WLA023) for 1 h at rt. Immunoreactive bands were visualized using an ECL detection kit (Wanlei, Cat No: WLA006) following the manufacturer’s instruction on the ChemiDoc system (BioRad, Shanghai, China).

CT26 = assay: MTT cell viability assay, CT26
Procedure: as §1, §2

HCT 116 = assay: MTT cell viability assay, HCT 116
Procedure: as §1, §2

MCF-7 = assay: MTT cell viability assay, MCF-7
Procedure: as §1, §2

## C=C=C1CN2[C@H]3C[C@H]1[C@H](C=O)[C@@H]2Cc1c3n(S(=O)(=O)c2ccc(C)cc2)c2ccc(Cl)cc12 [Compound 15ai]
MDA-MB-231 cells [1]
  cell morphology by TEM: mitochondrial swelling occurred
MIA PaCa-2; Homo sapiens, MIA PaCa-2, 72 h, MTT, 72 h, mean of at least three independent experiments, read-out: IC50 MIA PaCa-2
  pIC50: 5.08
MIA PaCa-2; Homo sapiens, MIA PaCa-2, source data sheet, single values of three experiments, read-out: MTT IC50 MIA PaCa-2
  pIC50: 5.10
MIA PaCa-2; source data sheet, single values of three experiments, read-out: MTT IC50 MIA PaCa-2
  pIC50: 5.00 and 5.15
MDA-MB-231; Homo sapiens, MDA-MB-231, 72 h, MTT, 72 h, mean of at least three independent experiments, read-out: IC50 MDA-MB-231
  pIC50: 5.69
MDA-MB-231; Homo sapiens, MDA-MB-231, source data sheet, single values of three experiments, read-out: MTT IC50 MDA-MB-231
  pIC50: 5.77
MDA-MB-231; source data sheet, single values of three experiments, read-out: MTT IC50 MDA-MB-231
  pIC50: 5.68 and 5.64
MDA-MB-231 cells [2]; 15ai 4 μM per Fig. 4, single replicates
  GSH levels (% of control): 52.357 % of control and 54.35 % of control
MDA-MB-231 cells [2]; (15ai 2 μM per Fig. 4), single replicates
  GSH levels (% of control): 80.51 % of control and 78.85 % of control
MDA-MB-231 cells [2]; (15ai 8 μM per Fig. 4), single replicates
  GSH levels (% of control): 27.587 % of control and 22.5 % of control
MDA-MB-231 cells [2]; Homo sapiens, MDA-MB-231, column 2 (15ai 2 μM per Fig. 4), single replicates
  GSH level (% of control) at 2 µM: 84.6%
MDA-MB-231 cells [2]; Homo sapiens, MDA-MB-231, column 4 (15ai 4 μM per Fig. 4), single replicates
  GSH level (% of control) at 4 µM: 61.6%
MDA-MB-231 cells [2]; Homo sapiens, MDA-MB-231, column 8 (15ai 8 μM per Fig. 4), single replicates
  GSH level (% of control) at 8 µM: 23.2%
MDA-MB-231 cells [2]; result in words, 15ai 0, 2, 4 and 8 μM
  GSH levels: dose-dependently decreased
A375; Homo sapiens, A-375, 72 h, MTT, 72 h, mean of at least three independent experiments, read-out: IC50 A375
  pIC50: 5.58
A375; Homo sapiens, A-375, source data sheet, single values of three experiments, read-out: MTT IC50 A375
  pIC50: 5.56
A375; source data sheet, single values of three experiments, read-out: MTT IC50 A375
  pIC50: 5.71 and 5.50
SLC7A11
  SLC7A11 level: dose-dependently decreased
CT26; Mus musculus, CT26, 72 h, MTT, 72 h, mean of at least three independent experiments, read-out: IC50 CT26
  pIC50: 5.22
CT26; Mus musculus, CT26, source data sheet, single values of three experiments, read-out: MTT IC50 CT-26
  pIC50: 5.15
CT26; source data sheet, single values of three experiments, read-out: MTT IC50 CT-26
  pIC50: 5.23 and 5.30
HCT 116; Homo sapiens, HCT-116, 72 h, MTT, 72 h, mean of at least three independent experiments, read-out: IC50 HCT 116
  pIC50: 5.32
HCT 116; Homo sapiens, HCT-116, source data sheet, single values of three experiments, read-out: MTT IC50 HCT-116
  pIC50: 5.20
HCT 116; source data sheet, single values of three experiments, read-out: MTT IC50 HCT-116
  pIC50: 5.42 and 5.37
MCF-7; Homo sapiens, MCF7, 72 h, MTT, 72 h, mean of at least three independent experiments, read-out: IC50 MCF-7
  pIC50: 4.86
MCF-7; Homo sapiens, MCF7, source data sheet, single values of three experiments, read-out: MTT IC50 MCF-7
  pIC50: 4.80
MCF-7; source data sheet, single values of three experiments, read-out: MTT IC50 MCF-7
  pIC50: 4.89

Reference: article PMC10492809, “A Bischler-Napieralski and homo-Mannich sequence enables diversified syntheses of sarpagine alkaloids and analogues” (Nature Communications, 2023)
